This test deals with T1, Beta-glucuronidase (Homo sapiens, UniProt P08236).
T1 sequence (P08236 whole entry): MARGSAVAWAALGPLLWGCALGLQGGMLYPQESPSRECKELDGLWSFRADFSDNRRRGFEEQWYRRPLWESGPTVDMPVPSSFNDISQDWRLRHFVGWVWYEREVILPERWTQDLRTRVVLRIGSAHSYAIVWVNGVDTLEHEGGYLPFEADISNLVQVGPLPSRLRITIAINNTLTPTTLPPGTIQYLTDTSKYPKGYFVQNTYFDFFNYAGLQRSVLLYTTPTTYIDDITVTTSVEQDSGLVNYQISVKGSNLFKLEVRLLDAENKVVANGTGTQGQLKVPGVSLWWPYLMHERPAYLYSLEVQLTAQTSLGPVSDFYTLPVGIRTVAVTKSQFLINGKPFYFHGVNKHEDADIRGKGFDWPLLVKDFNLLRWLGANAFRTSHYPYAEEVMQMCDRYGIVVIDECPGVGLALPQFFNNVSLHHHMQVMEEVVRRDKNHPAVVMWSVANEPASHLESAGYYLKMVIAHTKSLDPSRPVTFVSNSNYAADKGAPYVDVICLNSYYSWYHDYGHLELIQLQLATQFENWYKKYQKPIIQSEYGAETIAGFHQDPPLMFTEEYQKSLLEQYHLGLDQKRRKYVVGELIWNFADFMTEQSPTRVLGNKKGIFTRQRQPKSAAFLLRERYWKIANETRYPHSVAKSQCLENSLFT
The test can be described thus: Inhibition of beta-glucuronidase (unknown origin) using p-nitrophenyl-beta-D-glucuronide as substrate pre-incubated for 30 mins followed by substrate addition by spectrophotometric method.

One may read the IC50 as the concentration that inhibits the measured activity by half. Lower therefore signals greater potency.

Regarding `CCN(CC)C(=O)C1=C(C)N=C(S)NC1c1cccs1` (stereo unspecified), the IC50 is 350 nM.

The values above are taken from ChEMBL document CHEMBL4627307, “One-pot synthesis of thioxo-tetrahydropyrimidine derivatives as potent β-glucuronidase inhibitor, biological evaluation, molecular docking and molecular dynamics studies” (Bioorg Med Chem, 2020).
